Laboratory results reported in US9198433B2, “Substituted benzene fungicides” (E I DU PONT DE NEMOURS AND COMPANY, priority 2007, dated 2015).
Marks after values point to notes of the source that are not given here.

Columns and labels:
Type in all cases: in vivo
[1] = test system: Erysiphe graminis f. sp. tritici; assay: Test A: wheat powdery mildew, preventive spray on wheat seedlings, disease rating
Excerpt: (§1) The test compounds were first dissolved in acetone in an amount equal to 3% of the final volume and then suspended at the desired concentration (in ppm) in acetone and purified water (50/50 mix) containing 250 ppm of the surfactant Trem® 014 (polyhydric alcohol esters). The resulting test suspensions were then used in Tests A-L. Spraying a 200 ppm test suspension to the point of run-off on the test plants was the equivalent of an application rate of 500 g/ha. The test suspension was sprayed to the point of run-off on wheat seedlings. […] A dash (-) indicates no test results. All results are for 200 ppm except where followed by an “*”, which indicates 40 ppm or “**”, which indicates 50 ppm.

[2] = test system: Puccinia recondita f. sp. tritici; assay: Test B: wheat leaf rust, preventive spray on wheat seedlings, disease rating
Excerpt: as §1

Septoria nodorum = assay: Test C: wheat glume blotch, preventive spray on wheat seedlings, disease rating
Excerpt: as §1

Septoria tritici = assay: Test D: wheat leaf blotch, preventive spray on wheat seedlings, disease rating
Excerpt: The test compounds were first dissolved in acetone in an amount equal to 3% of the final volume and then suspended at the desired concentration (in ppm) in acetone and purified water (50/50 mix) containing 250 ppm of the surfactant Trem® 014 (polyhydric alcohol esters). The resulting test suspensions were then used in Tests A-L. Spraying a 200 ppm test suspension to the point of run-off on the test plants was the equivalent of an application rate of 500 g/ha. The test suspension was sprayed to the point of run-off on wheat seedlings. The following day the seedlings were inoculated with a spore suspension of Septoria tritici (the causal agent of wheat leaf blotch) and incubated in a saturated atmosphere at 24° C. for 48 h, and then moved to a growth chamber at 20° C. for 19 days, after which time disease ratings were made. […] A dash (-) indicates no test results. All results are for 200 ppm except where followed by an “*”, which indicates 40 ppm or “**”, which indicates 50 ppm.

Botrytis cinerea = assay: Test F: tomato Botrytis, preventive spray on tomato seedlings, disease rating
Excerpt: (§2) The test compounds were first dissolved in acetone in an amount equal to 3% of the final volume and then suspended at the desired concentration (in ppm) in acetone and purified water (50/50 mix) containing 250 ppm of the surfactant Trem® 014 (polyhydric alcohol esters). The resulting test suspensions were then used in Tests A-L. Spraying a 200 ppm test suspension to the point of run-off on the test plants was the equivalent of an application rate of 500 g/ha. The test suspension was sprayed to the point of run-off on tomato seedlings. […] A dash (-) indicates no test results. All results are for 200 ppm except where followed by an “*”, which indicates 40 ppm or “**”, which indicates 50 ppm.

Alternaria solani = assay: Test H: tomato early blight, preventive spray on tomato seedlings, disease rating
Excerpt: as §2

[3] = 200 ppm, 100 = 100% disease control, 0 = no control relative to controls

| SMILES | Percentage Disease Control, Test A ([1]; 40 ppm (*)) | Percentage Disease Control, Test B ([2]; 40 ppm (*)) | Percentage Disease Control, Test C (Septoria nodorum; 40 ppm (*)) | Percentage Disease Control, Test D (Septoria tritici; 40 ppm (*)) | Percentage Disease Control, Test F (Botrytis cinerea; 40 ppm (*)) | Percentage Disease Control, Test H (Alternaria solani; 40 ppm (*)) | Percentage Disease Control, Test A [1, 3] | Percentage Disease Control, Test B [2, 3] | Percentage Disease Control, Test C (Septoria nodorum; [3]) | Percentage Disease Control, Test D (Septoria tritici; [3]) | Percentage Disease Control, Test F (Botrytis cinerea; [3]) | Percentage Disease Control, Test H (Alternaria solani; [3]) | Percentage Disease Control, Test D (Septoria tritici; 40 ppm (*), 100 = 100% disease control, 0 = no control relative to controls) | Percentage Disease Control, Test F (Botrytis cinerea; 200 ppm) | Percentage Disease Control, Test H (Alternaria solani; 200 ppm) |
| --- | --- | --- | --- | --- | --- | --- | --- | --- | --- | --- | --- | --- | --- | --- | --- |
| COC(=O)NCc1cc(-c2ccn(-c3ccc(Cl)c(C(F)(F)F)c3)n2)ccc1Cl [Cmpd 88] | 95* % | 97* % | 100* % | 100* % | 0* % | 0* % |  |  |  |  |  |  |  |  |  |
| COC(=O)NCc1cc(-c2ccn(Cc3ccc(OC(F)(F)F)cc3)n2)ccc1Cl [Cmpd 66] | 99* % | 100* % | 100* % | 100* % | 0* % | 96* % |  |  |  |  |  |  |  |  |  |
| COC(=O)NCc1cc(-c2cc(C(F)(F)F)nn2CCC(C)(C)C)ccc1Cl [Cmpd 142] |  |  |  |  |  |  | 85% | 55% | 0% | 92% | 0% | 16% |  |  |  |
| COC(=O)NCc1cc(-c2cn(Cc3ccc(C)cc3)nn2)ccc1Cl [Cmpd 149] |  |  |  |  |  |  | 0% | 99% | 100% | 99% | 0% | 0% |  |  |  |
| COC(=O)NCc1cc(-c2ccnn2-c2ccccc2)ccc1Cl [Cmpd 140] |  |  |  |  |  |  | 0% | 32% | 0% | 96% | 0% | 0% |  |  |  |
| COC(=O)NCc1cc(-c2ccnc(C(F)(F)F)n2)ccc1Cl [Cmpd 138] |  |  |  |  |  |  | 56% | 48% | 92% | 77% | 0% | 0% |  |  |  |
| COC(=O)NCc1cc(-c2cnn(Cc3ccccc3Cl)c2)ccc1Cl [Cmpd 129] |  |  |  |  |  |  | 94% | 98% | 90% |  | 0% | 0% | 92* % |  |  |
| COC(=O)NCc1cc(-c2ccnc(-c3csc(C)n3)n2)ccc1Cl [Cmpd 131] |  |  |  |  |  |  | 0% | 0% | 0% | 13% | 0% | 0% |  |  |  |
| COC(=O)NCc1cc(-c2cc(C(F)(F)F)n(CCC(C)(C)C)n2)ccc1Cl [Cmpd 101] | 98* % | 99* % | 100* % | 95* % |  |  |  |  |  |  |  |  |  | 0% | 0% |
| COC(=O)NCc1cc(-c2ccn(-c3cccc(C(F)(F)F)n3)n2)ccc1Cl [Cmpd 69] | 97* % | 92* % | 98* % | 98* % |  |  |  |  |  |  |  |  |  | 0% | 32% |
| COC(=O)NCc1cc(-c2ccn(Cc3cccc([N+](=O)[O-])c3)n2)ccc1Cl [Cmpd 73] | 74* % | 98* % | 96* % | 98* % | 95* % | 14* % |  |  |  |  |  |  |  |  |  |
